# Results as given in US5643877A, “Compounds comprising gonadotropin releasing hormone (GnRH) and methods for controlling reproduction in fish” (University of Maryland Biotechnology Institute, priority 1994, dated 1997).
# Entries after “also recorded” stand apart in the source; their conditions may differ. Square brackets hold non-standard residues; d marks the D form. Peptide text beside a SMILES is read from it. pGlu = O=C1CC[C@@H](C(=O)O)N1
# System: GtH-II secretion in female gilthead seabream
# Assay: In vivo gonadotropin-releasing potency: plasma GtH-II by homologous radioimmunoassay after intramuscular injection of GnRH peptides
# Set-up: species or system Sparus aurata
# Details: for gonadotropin (GtH-II) secretion of sbGnRH, its analogs and the mGnRH analog compared (in words) / blood GtH-II levels, times higher than in sbGnRH-injected females: third experiment; for gonadotropin (GtH-II) secretion of sbGnRH, its analogs and the mGnRH analog compared (in words): 5 μg/kg body weight, 1.5, 4 and 8 hours post-injection; for GtH-II levels, times higher than in saline-injected fish: 25 μg/kg body weight; for stimulation of GtH-II secretion (in words): reproductively mature seabream females, native peptides injected at 5 and 25 μg/kg body weight
# Method: During the spawning season, 104 female seabream at 2 years of age, weighing 458±104 g, with preovulatory oocytes of 500-600 μm in diameter were selected for experimentation. Oocyte developmental stage was determined by microscopic examination of a freshly removed ovarian biopsy, as previously described (Zohar et al., 1979, J. Fish Biol. 15:665-670). The bioactivity of the native forms of GnRH and of the GnRH analogs was studied in three consecutive experiments, carried out on day 1, day 3, and day 8. The first experiment included four groups of eight females. Three groups were injected with 5 μg/kg body weight of either sbGnRH, sGnRH or cGnRH-II. The fourth group was injected with saline. The second experiment included four similar groups, except that the peptides were injected at a dose of 25 μg/kg body weight. The third experiment included five groups, each with eight females. One group was injected with native sbGnRH; two other groups were each injected with an analog of sbGnRH, the [D-Ala^6,Pro^9 -NEt]-sbGnRH and [D-Arg^6,Pro^9 -NEt]-sbGnRH; another group was injected with the analog of the mammalian GnRH, [D-Ala^6,Pro^9 -NEt]-mGnRH; and the last group was injected with saline. All peptides in the third experiment were injected at a dose of 5 μg/kg body weight.
# In all experiments, the tested peptides were injected into the dorsal musculature, in a volume of 0.5 ml/kg body weight. Each group of fish was held in a separate 600 liter tank exposed to natural photoperiod conditions and supplied with sea water at 20° C. Fish were bled before the injection of the peptides and at 1.5, 4 and 8 hours post-injection. At each bleeding time, 1 ml of blood was removed from the caudal vessels, using a 1 ml syringe fit with a 21G needle. Prior to injection and bleeding, fish were anesthetized in 0.2 ppt of 2-phenoxy-ethanol. Blood was immediately centrifuged and plasma removed and frozen. Levels of seabream GtH-II in the plasma samples were measured using a homologous and specific radioimmunoassay, as previously described (Zohar et al., 1990, Aquaculture 88:189-204). Blood GtH-II levels in the various groups were statistically compared using ANOVA followed by Duncan new multiple range comparison test.
# [1] = 5 μg/kg body weight, 1.5 hours post-injection
# [2] = 5 μg/kg body weight, 4 hours after injection
# [3] = 5 μg/kg dose, 1.5 hr after injection
# [4] = 25 μg/kg body weight, 1.5, 4 and 8 hours post-injection
# [5] = 25 μg/kg dose, 1.5 hr after injection
# [6] = native GnRH forms, 5 and 25 μg/kg body weight
SMILES,"gonadotropin (GtH-II) secretion of sbGnRH, its analogs and the mGnRH analog compared (in words)","blood GtH-II levels, times higher than in sbGnRH-injected females (5 μg/kg body weight, 1.5 hr) [times]","blood GtH-II levels, times higher than in sbGnRH-injected females (5 μg/kg body weight, 8 hr) [times]","blood GtH-II levels, times higher than in control females [1]","blood GtH-II levels, times higher than in control females [2]","blood GtH-II levels versus control females (5 μg/kg body weight, 8 hours post-injection)","potency in inducing GtH-II secretion, times more potent than sGnRH [3] [times]","potency in inducing GtH-II secretion, times more potent than sbGnRH [3] [times]",GtH-II-releasing potency of the native peptides compared (in words) [4],"GtH-II levels, times higher than in saline-injected fish (1.5 hr after injection) [times]","GtH-II levels, times higher than in saline-injected fish (4 hr after injection) [times]","GtH-II levels, times higher than in saline-injected fish (8 hr after injection) [times]","potency in inducing GtH-II secretion, times more potent than sGnRH [5] [times]","potency in inducing GtH-II secretion, times more potent than sbGnRH [5] [times]",GtH-II-releasing potency of the native peptides compared (in words) [6],stimulation of GtH-II secretion (in words)
"CCNC(=O)[C@@H]1CCCN1C(=O)[C@H](CO)NC(=O)[C@H](CC(C)C)NC(=O)[C@@H](C)NC(=O)[C@H](Cc1ccc(O)cc1)NC(=O)[C@H](CO)NC(=O)[C@H](Cc1c[nH]c2ccccc12)NC(=O)[C@H](Cc1c[nH]cn1)NC(=O)[C@@H]1CCC(=O)N1 [[D-Ala^6,Pro^9-.NEt]-sbGnRH, [D-Ala^6,Pro^9 -NEt]-sbGnRH] ([pGlu]HWSY[dA]LSP-NHEt)",significantly stronger gonadotropin secretion than did the native sbGnRH; also recorded: equipotent; also recorded: much less potent; also recorded: in the same range as those induced by the native sGnRH and cGnRH-II,5,2.5,–,–,–,–,–,–,–,–,–,–,–,–,–
"CCNC(=O)[C@@H]1CCCN1C(=O)[C@H](CO)NC(=O)[C@H](CC(C)C)NC(=O)[C@@H](CCCNC(=N)N)NC(=O)[C@H](Cc1ccc(O)cc1)NC(=O)[C@H](CO)NC(=O)[C@H](Cc1c[nH]c2ccccc12)NC(=O)[C@H](Cc1c[nH]cn1)NC(=O)[C@@H]1CCC(=O)N1 [[D-Arg^6, Pro^9 -NEt]-sbGnRH] ([pGlu]HWSY[dR]LSP-NHEt)",–,5,2.5,–,–,–,–,–,–,–,–,–,–,–,–,–
"NC(=O)CNC(=O)[C@@H]1CCCN1C(=O)[C@H](Cc1ccc(O)cc1)NC(=O)[C@H](Cc1c[nH]c2ccccc12)NC(=O)CNC(=O)[C@H](Cc1c[nH]cn1)NC(=O)[C@H](CO)NC(=O)[C@H](Cc1c[nH]c2ccccc12)NC(=O)[C@H](Cc1c[nH]cn1)NC(=O)[C@@H]1CCC(=O)N1 [cGnRH-II, pGlu-His-Trp-Ser -His-Gly-Trp-Tyr-Pro-Gly-NH2, reference compound] ([pGlu]HWSHGWYPG-NH2)",–,–,–,14.50 times,6.2 times,higher GtH-II levels,1.75,8,cGnRH-II>sGnRH>sbGnRH; also recorded: induced higher GtH-II secretion than did sGnRH or sbGnRH,31.0,10.9,5.5,2,7,significantly more potent than the novel sbGnRH,significantly stimulate GtH-II secretion
"CC(C)C[C@H](NC(=O)CNC(=O)[C@H](Cc1ccc(O)cc1)NC(=O)[C@H](CO)NC(=O)[C@H](Cc1c[nH]c2ccccc12)NC(=O)[C@H](Cc1c[nH]cn1)NC(=O)[C@@H]1CCC(=O)N1)C(=O)N[C@@H](CO)C(=O)N1CCC[C@H]1C(=O)NCC(N)=O [sbGnRH, pGlu-His-Trp-Ser-Tyr-Gly-Leu-Ser-Pro-Gly-NH 2]",did not induce significant release of GtH-II,–,–,tended to be higher than in the control females,not different from control levels,–,–,–,cGnRH-II>sGnRH>sbGnRH,4.4,–,–,–,–,less active than cGnRH-II and sGnRH,significantly stimulate GtH-II secretion
